Values quoted from earlier work in patent publication US12403114B2, “Cannabinoid acid ester compositions and uses thereof” (EPM (IP), INC., priority 2019, dated 2025).

Biological target: T1, serotonin 5-HT1A Receptor (Homo sapiens, UniProt P08908)
T1 sequence (P08908 1-422): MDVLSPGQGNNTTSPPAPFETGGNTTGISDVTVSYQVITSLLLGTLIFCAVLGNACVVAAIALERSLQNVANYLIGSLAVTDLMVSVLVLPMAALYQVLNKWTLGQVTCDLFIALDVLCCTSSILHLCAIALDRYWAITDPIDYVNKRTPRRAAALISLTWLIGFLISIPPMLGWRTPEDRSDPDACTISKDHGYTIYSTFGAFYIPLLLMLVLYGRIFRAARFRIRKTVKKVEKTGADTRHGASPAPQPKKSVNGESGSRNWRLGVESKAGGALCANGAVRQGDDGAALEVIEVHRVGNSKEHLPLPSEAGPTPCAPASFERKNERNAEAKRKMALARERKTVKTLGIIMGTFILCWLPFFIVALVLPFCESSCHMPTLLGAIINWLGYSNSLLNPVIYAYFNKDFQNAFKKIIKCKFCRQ
Settings: CBDA activates the receptor; background statement; cited from earlier work

## C=C(C)C1CCC(C)=CC1c1c(O)cc(CCCCC)c(C(=O)O)c1O (stereo not shown) [CBDA, 2,4-dihydroxy-3-[3-methyl-6-prop-1-en-2-ylcyclohex-2-en-1-yl]-6-pentylbenzoic acid]
  affinity for the 5-HT1A receptor relative to CBD: significantly greater
